Source: ChEMBL document CHEMBL1201862, “PubChem BioAssay data set” (2004)
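Results reflect a 48-hour exposure of cells in 96-well plates to compound at five concentrations. Here, GI50 denotes the concentration required for 50% inhibition of growth.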 Calls of active or inactive are those of the source. No stated cut-off is given here; in the data, active = GI50 up to about 1.1 µM and inactive = higher.

What was measured:
Experiment in all cases: inhibition of tumour cell growth, NCI panel, 48 h
MDA-N = tested on: MDA-N
NCI-H522 = tested on: NCI-H522
CAKI-1 = tested on: CAKI-1
MOLT-4 = tested on: MOLT-4
SF-539 = tested on: SF-539
SF-295 = tested on: SF-295
HOP-92 = tested on: HOP-92
SR = tested on: SR
SNB-19 = tested on: SNB-19
HCT-116 = tested on: HCT-116
MDA-MB-231 = tested on: MDA-MB-231
LOX IMVI = tested on: LOX IMVI
SW-620 = tested on: SW-620
HL-60 = tested on: HL-60
SK-MEL-2 = tested on: SK-MEL-2
OVCAR-3 = tested on: OVCAR-3
HCC 2998 = tested on: HCC 2998
MCF7 = tested on: MCF7
RPMI-8226 = tested on: RPMI-8226
DU-145 = tested on: DU-145

Measured: GI50

O=c1[nH]c2ccc(CC(=S)N3CCN(c4ccccc4)CC3)cc2o1
inactive: MDA-N > 49.9 µM | NCI-H522 86.7 µM | CAKI-1 97.9 µM | MOLT-4 > 80.7 µM | SF-539 > 67.8 µM | SF-295 > 89.3 µM | HOP-92 84.9 µM | SR > 58.3 µM | SNB-19 > 100 µM | HCT-116 > 80.5 µM | MDA-MB-231 > 100 µM | LOX IMVI > 100 µM | SW-620 > 100 µM | HL-60 6.18 µM | SK-MEL-2 > 100 µM | OVCAR-3 > 100 µM | HCC 2998 > 100 µM | MCF7 > 100 µM | RPMI-8226 > 66.5 µM | DU-145 > 100 µM

CC(C)(C)c1ccc(-c2nc3ccc([N+](=O)[O-])cc3c(=O)o2)cc1
inactive: MDA-N 31.6 µM | NCI-H522 20.1 µM | CAKI-1 50.4 µM | MOLT-4 18.7 µM | SF-539 17.1 µM | SF-295 20.8 µM | HOP-92 15.6 µM | SR 22.7 µM | SNB-19 21.5 µM | HCT-116 23.4 µM | MDA-MB-231 27.5 µM | LOX IMVI 15.3 µM | SW-620 31 µM | HL-60 25.5 µM | SK-MEL-2 20.7 µM | OVCAR-3 27.4 µM | HCC 2998 12.9 µM | MCF7 34.1 µM | RPMI-8226 30.9 µM | DU-145 32.7 µM

O=S(=O)(/N=C(\NO)Nc1ccc(Cl)cc1)C1CC=C(c2ccon2)S1 (stereo unspecified)
inactive: MDA-N 6.04 µM | NCI-H522 1.13 µM | CAKI-1 2.39 µM | MOLT-4 3.34 µM | SF-539 1.2 µM | SF-295 40.7 µM | HOP-92 10.3 µM | SR 2.3 µM | SNB-19 30.1 µM | HCT-116 15.6 µM | MDA-MB-231 18.4 µM | LOX IMVI 21 µM | SW-620 5.78 µM | HL-60 1.18 µM | SK-MEL-2 13.3 µM | OVCAR-3 22.5 µM | HCC 2998 15.3 µM | MCF7 16.1 µM | RPMI-8226 6.07 µM | DU-145 55.3 µM

CCC(CON(C)c1ccccc1)(SC)SC
inactive: MDA-N > 100 µM | NCI-H522 > 100 µM | CAKI-1 > 100 µM | MOLT-4 > 100 µM | SF-539 > 100 µM | SF-295 > 100 µM | HOP-92 > 100 µM | SR > 100 µM | SNB-19 > 100 µM | HCT-116 > 100 µM | MDA-MB-231 > 100 µM | LOX IMVI > 100 µM | SW-620 > 100 µM | HL-60 99.1 µM | SK-MEL-2 28.7 µM | HCC 2998 > 100 µM | MCF7 > 100 µM | RPMI-8226 > 100 µM | DU-145 82.6 µM

Cc1oc2ccccc2c(=O)c1Cn1nnc2ccccc21
inactive: MDA-N 39.4 µM | MOLT-4 37.2 µM | SF-539 > 100 µM | SF-295 > 100 µM | HOP-92 18.6 µM | SR 35.9 µM | SNB-19 > 100 µM | HCT-116 59.7 µM | MDA-MB-231 91.4 µM | LOX IMVI 73.3 µM | SW-620 > 100 µM | HL-60 48.5 µM | SK-MEL-2 > 100 µM | OVCAR-3 30.6 µM | HCC 2998 > 100 µM | MCF7 21.8 µM | RPMI-8226 35.7 µM | DU-145 25.5 µM

Cc1ccc(S(=O)(=O)N/C(=N\O)Nc2ccc(Cl)c(Cl)c2)cc1
inactive: MDA-N 3.57 µM | NCI-H522 4.47 µM | CAKI-1 5.41 µM | MOLT-4 1.98 µM | SF-539 12.1 µM | SF-295 17.2 µM | HOP-92 3.05 µM | SR 5.69 µM | SNB-19 7.4 µM | HCT-116 5.31 µM | MDA-MB-231 9.98 µM | LOX IMVI 4.11 µM | SW-620 11.2 µM | HL-60 1.87 µM | SK-MEL-2 10.2 µM | OVCAR-3 4.41 µM | HCC 2998 2.14 µM | MCF7 17.5 µM | RPMI-8226 10.1 µM | DU-145 12 µM

C(/Cc1ccc2c(c1)OCO2)=N\N=C1NCCCN1
inactive: MDA-N > 100 µM | NCI-H522 55.3 µM | MOLT-4 24.7 µM | SF-539 50.5 µM | SF-295 38.2 µM | HOP-92 70.1 µM | SR 22.5 µM | SNB-19 > 100 µM | HCT-116 46.2 µM | MDA-MB-231 > 100 µM | LOX IMVI 29.4 µM | SW-620 > 100 µM | HL-60 31.6 µM | SK-MEL-2 > 100 µM | OVCAR-3 80.2 µM | HCC 2998 41.7 µM | MCF7 26.9 µM | RPMI-8226 56.1 µM | DU-145 67.5 µM
